Source: a melting point compilation (Tetko et al.; mined from patent text by program, amines drawn as free bases though some values may be those of a salt)

melting point [°C]	Structure (SMILES)
87 to 100	O=C1N(c2cccc(C(F)(F)F)c2)CC(CCl)C1(Cl)Cl (stereo not given)
125 to 126	C#CCOc1cc(-n2nc(C)c([N+](=O)[O-])c2C)c(F)cc1Cl
> 300	O=c1ccn(-c2ccc3c(c2)Cc2cc(=O)[nH]nc2-3)cc1
144	O=C(O)CC1CCCc2cc(S(=O)(=O)c3ccccc3)ccc21 (stereo not given)
141 to 142	CC(=O)OCCCc1cccc(-c2nc(=O)c3ccccc3s2)n1
32 to 34	N#Cc1cscc1Sc1ccccc1
190 to 210	Clc1ccc(-c2cc3ncnc(Nc4ccc5[nH]ccc5c4)c3s2)cc1
157 to 158	CC(C)c1nc(CNC(=O)C(F)(F)F)n(C)c1Sc1cc(Cl)cc(Cl)c1
148 to 149	O=[N+]([O-])c1cnccc1NCc1c(F)cccc1F
90 to 91	C[Si](C)(C)c1cccc2c1Sc1c(cccc1[Si](C)(C)C)S2
263 to 264	CCOC(=O)c1cc2c(=O)c3cc(C(C)(C)O)ccc3oc2nc1N
114	CC(C)(C)OC(=O)CN(C(=O)CNC(=O)c1ccc2ccccc2n1)c1ccccc1
127 to 128	CNc1cc(N2CCOCC2)nc(N2CCOCC2)n1
134	O=C1N(CO)OCCN1c1ccc(Cl)c(Cl)c1
147 to 149	CCCc1ccc(Oc2ccc3c(c2)C=C(C(=O)O)CCS3(=O)=O)cc1
78	CCOC(=O)c1ccccc1NC(=O)C(F)(F)F
107	CC(C)(C)OC(=O)NCCCCNC(=O)COc1ccc(Cl)cc1Cl
115 to 117	CN(C)CCSc1cc(NC(=O)OC(C)(C)C)c(N)cc1C#Cc1ccccc1
65	N#Cc1ccc(C2CC(=O)N(Cc3ccccc3)Cc3cncn32)cc1 (stereo not given)
> 250	O=C(Oc1ccccc1)N1CCc2[nH]c3c(cnc4cc(Cl)ccc43)c2C1
141 to 143	COc1cc(OC)nc(NC(=O)NS(=O)(=O)Cc2ccccc2C(=O)N(C)C)n1
200 to 203	COC(=O)COc1ccc(C(=O)CNC(=O)c2ccc(C#N)cc2)cc1
220	CCS(=O)(=O)Nc1cc(-n2nc3n(c2=O)CCCC3)c(F)cc1C(N)=S
84 to 85	FC(F)(F)C(F)(F)CCCSCCCCCOc1ccc(C2=C(c3ccccc3)CCCc3ccccc32)cc1
252 to 254	CC1N=C2N(Cc3ccc(Cl)cc3)c3[nH]cnc3C(=O)N2C1C (stereo not given)
108	Cc1cccc(NC(=O)NCC(=O)N(c2ccccc2)C(C(=O)OC(C)(C)C)c2ccc(N)cc2)c1 (racemic)
115 to 117	CCOC(=O)C=CC(=O)c1ccc(Oc2ccc(Cl)c(Cl)c2)cc1
168 to 170	CCC1CN(c2nc(C)nc(NC)n2)c2ccccc21 (stereo not given)

melting point [°C]	Structure (SMILES)
159 to 162	CCn1c(C)c(I)c(=O)n(CC)c1=O
87 to 88	C=C1CC2C(=O)C(c3c(CC)cc(C)cc3CC)=C(OCc3ccccc3)C2C1 (stereo not given)
82 to 85	Fc1ccc(NC(=S)c2ccccn2)cc1
202 to 204	Cn1ccc(=O)c(OCc2ccccc2)c1C(O)c1ccccn1 (stereo not given)
125 to 145	CC(C)(C)OC(=O)NC(Cc1ccccc1)C(O)CNCC(O)C(Cc1cccc(OCc2ccccc2)c1)NC(=O)OC(C)(C)C (stereo not given)
122 to 124	Cc1cn(C(C)(C)C(=O)N(C)C)nc1-c1ccc(Cl)cc1
248 to 250	COc1cc(C=CC(=O)Nc2c(-c3ccccc3C)c3cc(Cl)c(C)cc3oc2=O)cc(OC)c1OC(C)=O
51 to 54	CCC(CC)Nc1c([N+](=O)[O-])cc(C)c(CO)c1[N+](=O)[O-]
146 to 148	COC(C)CCC1(O)C2=NCCCN2c2cc(Cl)ccc21 (stereo not given)
62 to 64	COC(=O)NC(=NS(=O)(=O)NC(C)C)OC(C)C
225 to 227	Nc1cc(=O)nc(Nc2ccc(F)cc2)n1-c1ccccc1
173	CC1=N/C(=C\c2cccnc2)C(=O)O1
176 to 178	CCCC(O)(CCC)c1ccc(Cl)c2nc3n(c12)CCCN3c1c(C)cc(Cl)cc1Cl
> 300	O=C(c1ccccc1C(c1ccc(O)cc1)c1ccc(O)cc1)N1CCN(c2ccccc2Cl)CC1
66.9 to 70.6	CCc1nn2ccccc2c1N(CCF)C(=O)COC
178 to 180	O=C(CON=C(C(=O)O)c1csc(NC(=O)C(F)(F)F)n1)OC(c1ccccc1)c1ccccc1
212 to 214	Cn1nc(-c2ccccc2)c(C2CCCCC2)c1N
146 to 147	CCCc1c(OCCCSc2nnc(NC(=O)C(=O)OCC)s2)ccc(C(C)=O)c1O
120 to 146	CCOC(=O)NN=C(c1ccc(Cl)cc1)c1ccc(OC(=O)CC)cc1
140 to 142	Cc1ccc(S(=O)(=O)N2CCC3(CCc4ccccc43)CC2)cc1
212 to 215	CCC(C(=O)C(C)C(O)C(C)CCc1c(N=Nc2ccccc2)cc(C)c(O)c1C(=O)O)C1OC(CC)(C2CCC(O)(CC)C(C)O2)CC1C (stereo not given)
144 to 146	COc1ccc2c(c1)CCN(Cc1c[nH]c3ncccc13)C2
84 to 85	COc1cc2c(cc1OC)CC(=O)N(CCCCl)C=C2
77 to 85	CC(=NC(C)c1ccc(Cl)cc1Cl)c1ccc(Cl)cc1Cl (stereo not given)
100 to 101	COc1c(C)ccc(C(C)C)c1CO
154 to 157	Cc1ccccc1-c1ccc(C(=O)N2Cc3ccc(C(=O)NCCc4ccc5c(c4)OCO5)n3Cc3ccccc32)cc1C
126 to 127	O=Cc1ccc(OCC(F)(F)F)c([N+](=O)[O-])c1

The next lines start with the compound.

Structure (SMILES)	melting point [°C]
Cc1ncn(Cc2ccc(N)cc2C(F)(F)F)c1C	185 to 186
NC(=O)C1COc2c(F)cccc2O1 (stereo not given)	167
COc1nc2c(cc1NC(=S)N1CCN(c3cc(C)cc(C)c3)CC1)CCCC2	200 to 201
COC(=O)NN=C1CCc2ccccc21	155 to 156
CCCCn1ccc(-c2ccc(Oc3cc(C)nc(C)c3)cc2F)c(C#N)c1=O	170
CN1CCN(c2ncnc3oc(-c4ccc(N)nc4)c(-c4ccccc4)c23)CC1	229 to 231
O=c1cc(Cl)c2nc3ccc(F)cc3sc-2c1Cl	245 to 247
CC(=O)NCCC1CCc2ccn3nc(C)cc3c21 (stereo not given)	106 to 107
COc1cccc(C(O)c2nc3c(cc2C)CCCCC3)c1 (stereo not given)	104 to 106
CNC(=O)c1ccccc1Nc1nc(Nc2ccc3c(c2)CCC(NCC(F)F)CC3)ncc1Cl (stereo not given)	182 to 183
Cc1ccc2nc(-c3ccc(C=O)cc3)cn2c1	210 to 211
C=CCc1cc(C=O)ccc1O	66
COC(=O)c1ccc2c(c1)OCC2(C)Cc1ccccc1 (stereo not given)	52
Nc1noc(CN2CCC[C@@H](OCc3cc(C(F)(F)F)cc(C(F)(F)F)c3)[C@H]2c2ccccc2)n1 (relative stereo)	138 to 139
Cc1ccc2[nH]nc(S(C)=O)c(=O)c2c1 (stereo not given)	265 to 267
Cc1cc(C)cc(C(=O)N2CCC(Oc3nc4ccccc4n3Cc3ccc(F)cc3)CC2Cc2ccccc2)c1 (stereo not given)	154
CCCCCNS(=O)(=O)NC(=O)CCc1ccc(OCCOC)cc1Oc1ncc(C(F)(F)F)cc1Cl	153 to 154
COc1ccc(C(=O)Nc2cccc(Cl)c2)cc1N	144 to 146
Cn1nnc(-c2ccc3c(c2)c(C2CCN(CCN4CCNC4=O)CC2)cn3-c2ccncc2)n1	204 to 206
Cc1ccc(CSc2nc3cc4c(cc3[nH]2)C(C)(C)CCC4(C)C)nc1	187 to 188
Nc1ccccc1NC(=O)c1ccc(NC(=O)Cc2ccccc2)cc1	232 to 237
CC(C)(C)OC(=O)Nc1cc(OCC2COC(C)(C)O2)c(C#Cc2ccccc2)cc1[N+](=O)[O-] (racemic)	32
CCC1c2cccn2-c2ccc(F)cc2N1S(=O)(=O)c1ccc(OC)c(Cl)c1 (stereo not given)	152 to 154

Structure (SMILES)	melting point [°C]
Clc1ccc2c(C3=CCN(CCCOc4cccc5[nH]ccc45)CC3)c[nH]c2c1Cl	224 to 227
CC1CCOP(C)(=O)C1 (stereo not given)	78 to 83
CCOc1nc2c(nc1C(=O)Cl)c(C)nn2CC	109 to 111
Cc1ccc(-c2cccc(/C=C/C(=O)Nc3ccc(CN4CCCC(O)C4)cc3)c2)cc1 (stereo not given)	132 to 134
CC(C)(C)OC(=O)NCCNC(=O)c1n[nH]cc1-c1ccccc1	71
CC(C)n1nc(-c2sc(NC(=O)c3cccc(Cl)c3)nc2-c2ccccc2)ccc1=O	173 to 174
COc1cc(OC)c(-c2c[nH]c(C3CC3)n2)cc1C=CC(=O)c1ccc(S(N)(=O)=O)cc1	156 to 160
COc1cccc(CC(=O)N2CCN(c3cccc(C(F)(F)F)c3)CC2)c1	99 to 101
CC(C)(C)OC(=O)N1CCc2ccc3ccn(CCO)c3c2CC1	226 to 229
Fc1ccc(Cn2c(NC3CCN(CCc4ccccn4)CC3)nc3cncnc32)cc1	172
NC(=O)c1ncn2c(-c3ccccc3)ccnc12	226 to 228
COC(=O)c1ccc(C=CC(=O)Nc2cnc3c(C)cc(C)cc3c2-c2ccccc2Cl)cc1	225 to 226
CC(C)CN1CCC(c2ccc(Br)cc2)CC1	36 to 37
Cc1[nH]c2ccc(CCN(C)C3CCCCC3)cc2c1C(=O)OCc1ccccc1	122 to 124
Cc1cc(C(C)(C)C)c(O)c2[nH]c(Cc3ccccc3)nc12	226 to 228
CN1CCN(CC2(O)CC=Cc3ncccc32)CC1 (stereo not given)	126 to 127
CC(C)CN(C)c1ccccc1CS(=O)c1nc2ncccc2[nH]1 (stereo not given)	116 to 118
Nc1nc2ccccc2n2cnc(-c3noc(C4CC4)n3)c12	305 to 310
O=C(O)/C=C/c1ccc(OCCN2CCCC2)cc1	183
O=C(Nc1nc2ccccc2o1)C(Cc1ccc(F)cc1)c1ccc(F)cc1F (stereo not given)	178
CCCCCCCCCCCCc1ccc(CO)cc1	44 to 45
O=[N+]([O-])c1ccc(-c2cccnc2)s1	169 to 171
